Data on 18 compounds can be found in the Deep4Chem optical property database.

This series is described as follows: solvent given as SMILES.

Turning to `CCCCN(CCCC)c1ccc2c#cc3cc4c#cc5ccc(N(CCCC)CCCC)cc5c#cc#cc5cc(C(F)(F)F)ccc5c#cc4cc3c#cc3ccc(C(F)(F)F)cc3c#cc#cc2c1`, the absorption maximum (in ClCCl) amounted to 454 nm.

As for `O=C(c1ccc(N2c3ccccc3Oc3ccccc32)cc1)c1cccc(C(=O)c2ccc(N3c4ccccc4Oc4ccccc43)cc2)c1`, the absorption maximum (in Cc1ccccc1) was determined as 416 nm.

Consider `N#Cc1c(N2CCCCC2)cc(-c2cccc3ccccc23)c2c1CCc1ccccc1-2`, for which the absorption maximum (in C1CCOC1) worked out at 353 nm.

For the compound `CN1c2ccc3c(c2-c2ccccc2S1(=O)=O)-c1ccccc1S(=O)(=O)N3C`, the absorption maximum (in ClCCl) came to 350 nm.

The compound `CC(C)(C)c1c2ccc3[nH]c4c(ccc5c(C(C)(C)C)c(ccc6[nH]c7c(ccc1c7n2)c6C(C)(C)C)nc54)c3C(C)(C)C` displayed an absorption maximum (in Cc1ccccc1) of 764 nm.

`N#Cc1ccc(N2c3ccccc3C(c3ccccc3)(c3ccccc3)c3ccccc32)cc1` returned an absorption maximum (in Cc1ccccc1) of 352 nm.

Compound `O=[N+]([O-])c1ccc(N/C=C/C=[NH+]c2ccc([N+](=O)[O-])cc2)cc1` came in with an absorption maximum (in CS(C)=O) of 388 nm.

For `CCCN1/C(=C\c2c(-c3ccc(N(C)C)cc3)c(=O)c2=O)C=Cc2ccccc21`, the absorption maximum was 358 nm (in C1CCCCC1), 362 nm (in Cc1ccccc1) and 509 nm (in ClCCl).

In the case of `COc1ccc2c(-c3nc(-c4cccc(Br)c4)no3)cc(=O)oc2c1`, the absorption maximum reads like this: (in CCO) 259 nm; (in ClC(Cl)Cl) 360 nm.

Regarding `Cc1nc2c(ccc3c2sc(/C=C/c2ccc(-n4c5ccccc5c5ccccc54)cc2)[n+]3C)s1`, the absorption maximum by setting is: (in CO) 446 nm; (in ClC(Cl)Cl) 488 nm.

As to `CCCCCCCCc1ccc(-n2c3c4ccccc4nc(-c4ccc(C#N)cc4)c3c3c2c2c(-c4ccc(C#N)cc4)nc4ccccc4c2n3-c2ccc(CCCCCCCC)cc2)cc1`, for the setting “in ClC(Cl)Cl”, the absorption maximum is recorded as 314 nm.

Turning to `CN1C(=O)c2cccc3c(-n4c5ccccc5c5ccccc54)ccc(c23)C1=O`, the absorption maximum is on record as 408 nm (in C1CCOC1), 402 nm (in CCCCCC), 404 nm (in ClC(Cl)Cl) and 414 nm (in ClCCl).

As for `CS(=O)(=O)c1ccc(-c2cc3ccc(N)cc3c(=O)o2)cc1`, the absorption maximum (in CC(C)=O) was 358 nm; the absorption maximum (in CCCCCCCCO) is 366 nm; the absorption maximum (in CCCCO) amounted to 366 nm; the absorption maximum (in CCCO) turned out to be 366 nm; the absorption maximum (in CCOC(C)=O) is 356 nm; the absorption maximum (in CN(C)C=O) came out at 367 nm. The absorption maximum is listed as 358 nm (in CO) and 351 nm (in ClC(Cl)Cl).

As to `COC(=O)c1c2ccccc2nc2ccccc12`, the absorption maximum (in C1CCOC1) stood at 361 nm; the absorption maximum (in C1COCCO1) was 361 nm; the absorption maximum (in CC#N) is 360 nm; the absorption maximum (in CCCCCO) is 361 nm; the absorption maximum (in CCCCO) is 360 nm; the absorption maximum (in CCCO) was found to be 361 nm. The absorption maximum is, setting by setting: (in CCO) 360 nm; (in CO) 360 nm; (in COCCOC) 361 nm; (in ClC(Cl)Cl) 361 nm; (in ClCCl) 361 nm; (in OCCO) 361 nm.

Under “in CCO”, `CC/[NH+]=c1\cc2oc3cc(NCCC(=O)NC(C)C(=O)OC)c4ccccc4c3nc-2cc1C` (stereo not given) displayed an absorption maximum of 590 nm.

As for `Cc1cc2cc3ccccc3cc2cn1`, the absorption maximum (in CCO) was 379.08 nm.

`Cn1nc(-c2ccccc2)c2n[nH]nc2/c1=N\c1ccccn1`: the absorption maximum by setting is: (in CC#N) 402 nm; (in CCO) 382 nm; (in Cc1ccccc1) 410 nm.

The compound `CCCCCCCCCCCCOc1cc2c3c(ccc4c5c(NC6CCCCC6)cc6c7c(ccc(c1c34)c75)C(=O)N(C1CCCCC1)C6=O)C(=O)N(C1CCCCC1)C2=O` registered an absorption maximum (in ClC(Cl)Cl) of 640 nm.
